Experimental data taken from PMC4583543, “Development and Validation of a Novel Leishmania donovani Screening Cascade for High-Throughput Screening Using a Novel Axenic Assay with High Predictivity of Leishmanicidal Intracellular Activity” (PLoS Neglected Tropical Diseases, 2015).
Like-named read-outs stand apart in the source and are kept apart here.

Experiments:
[1] = tested on: eGFP expressing LdBOB amastigote-like cells in PMA differentiated THP-1 cells; assay: Intramacrophage (intracellular, INMAC) assay; format: cell-based, Leishmania donovani; details: for EC50: Leishmania donovani
Protocol: (§1) Compounds were dispensed into 384-well assay plates by acoustic dispensing (LabCyte ECHO). […] Potencies are reported as pEC50 (-LOG(EC50[M])).
(§2) All data was processed using IDBS ActivityBase. […] Potency plates were normalised to DMSO control (0% effect) and 2μM amphotericin B control (100% effect). […] For compounds with low activity and poor definition of the curve top, B was fixed to 100. For the determination of the reference compound panel potency, all experiments were carried out with a minimum of three independent repeats.
(§3) The assay conditions are described previously. Briefly PMA differentiated THP-1 cells were infected overnight with eGFP expressing LdBOB amastigote-like cells at a multiplicity of infection of 5. Next, any remaining free amastigote-like cells are removed and compounds are added. The microscopy-based read-out is done after a four day compound incubation.

[2] = tested on: LdBOB axenic amastigote-like cells; assay: Novel (cidal) axenic amastigote assay, BacTiter-Glo read-out; format: cell-based, Leishmania donovani; details: for EC50: Leishmania donovani
Text: Leishmania donovani BOB cells (LdBOB) used in this study are a cloned line from strain MHOM/SD/62/1S-CL2 [13]. Cultures were maintained as described previously. Compounds were dispensed into 384-well assay plates by acoustic dispensing (LabCyte ECHO). […] Potencies are reported as pEC50 (-LOG(EC50[M])). All data was processed using IDBS ActivityBase. […] For compounds with low activity and poor definition of the curve top, B was fixed to 100. For the determination of the reference compound panel potency, all experiments were carried out with a minimum of three independent repeats. Test compounds were pre-dispensed into white 384 well plates (Corning). For library screens one compound per well was tested at the indicated final concentration. […] DMSO, zero percent effect control: cells at starting concentration. The zero percent effect control wells are left empty during the course of the assay. […] The assay volume is 25 μl / well. […] Plates were then sealed with clear film and relative luminescence was detected using a plate reader (Victor 3) from Perkin Elmer or PHERAstar FS from BMG LABTECH, with 0.5 s detection time per well).

[3] = tested on: HepG2 cells; assay: HepG2 assay (mammalian counterscreen, resazurin); format: cell-based, human; details: reference compound panel, mean (standard deviation), 72 h; for EC50: Homo sapiens, HepG2, read-out: HepG2 (potency, pEC50) (converted)
Protocol: Compounds were dispensed into 384-well assay plates by acoustic dispensing (LabCyte ECHO). […] Potencies are reported as pEC50 (-LOG(EC50[M])). All data was processed using IDBS ActivityBase. […] For compounds with low activity and poor definition of the curve top, B was fixed to 100. For the determination of the reference compound panel potency, all experiments were carried out with a minimum of three independent repeats. The assay conditions are described previously.

[4] = tested on: THP-1 cells; assay: THP-1 host cell toxicity in the intramacrophage assay; format: cell-based, human; details: for EC50: Homo sapiens, THP-1
Protocol: as §1, §2, §3

[5] = THP-1, DOS library compounds, dose response, read-out: INMAC (intracellular) pEC50 (converted)
[6] = THP-1, 96 h, reference compound panel, mean (standard deviation), minimum three independent repeats, four day incubation, read-out: Intramacrophage (potency, pEC50) (converted)
[7] = read-out: Novel (axenic assay potency, pEC50) (converted)
[8] = reference compound panel, mean (standard deviation), host cell toxicity, read-out: THP-1 (potency, pEC50) (converted)
[9] = DOS library compounds, ten-point dose response, read-out: cAX pEC50 (converted)
[10] = DOS library compounds, dose response, read-out: THP1 pEC50 (converted)

Row | SMILES | EC50 [1, 5] [µM] | EC50 [2, 9] [µM] | EC50 [4, 10] [µM] | also measured
1 | CCCNC(=O)N1[C@H](CO)[C@@H](c2ccc(-c3cccc(OC)c3)cc2)[C@@H]1C#N [BRD6650 SSR stereoisomer] | 10 | – | – | –
2 | CCCNC(=O)N1[C@H](C#N)[C@H](c2ccc(-c3cccc(OC)c3)cc2)[C@H]1CO [BRD6650 SSS stereoisomer] | 20 | – | – | –
3 | Cn1c([N+](=O)[O-])cnc1COc1ccc(S(C)(=O)=O)cc1 [Fexinidazole sulfone] | – | – | – | EC50 [1, 6]: 32.4 µM; EC50 [2, 7]: 7.76 µM; EC50 [3]: > 50.1 µM; EC50 [4, 8]: > 34.7 µM
4 | CCCNC(=O)N1[C@H](C#N)[C@@H](c2ccc(-c3cccc(OC)c3)cc2)[C@H]1CO [BRD6650 SRS stereoisomer] | 20 | – | – | –
5 | COc1ccc2cc3[n+](cc2c1OC)CCc1cc2c(cc1-3)OCO2 [Berberine] | – | – | – | EC50 [1, 6]: 16.2 µM; EC50 [2, 7]: 9.33 µM; EC50 [3]: 33.9 µM; EC50 [4, 8]: > 34.7 µM
6 | CCCNC(=O)N1[C@H](CO)[C@H](c2ccc(-c3cccc(OC)c3)cc2)[C@@H]1C#N [BRD6650 SRR stereoisomer] | 31.6 | – | – | –
7 | COc1ccc(-c2ccccc2[C@H]2[C@@H](C#N)N(C(=O)NC(C)C)[C@H]2CO)cc1 [BRD3029] | 12.6 | 1.58 | > 50.1 | –
8 | CCN(CC)Cc1cc(Nc2ccnc3cc(Cl)ccc23)ccc1O [Amodiaquine] | – | – | – | EC50 [1, 6]: 4.07 µM; activity in words (intracellular versus novel axenic) ([1]; reference compound panel): only active in the intracellular assay; EC50 [2, 7]: > 50.1 µM; EC50 [3]: 25.7 µM; EC50 [4, 8]: 29.5 µM
9 | CC(C)NC(=O)N1[C@H](C#N)[C@H](c2ccc(-c3ccc(F)cc3)cc2)[C@@H]1CO [BRD3486] | 6.31 | 2 | 10 | –
10 | C=CC(C)(C)c1cc(/C=C/C(=O)c2ccc(O)cc2)c(OC)cc1O [Licochalcone A] | – | – | – | Intramacrophage (potency, pEC50) ([1]; reference compound panel, mean (standard deviation), minimum three independent repeats, four day incubation): 4.65 (0.17); Novel (axenic assay potency, pEC50) ([2]; reference compound panel, mean (standard deviation), minimum three independent repeats, top concentration 50 μM, pEC50 = -LOG(EC50[M])): 4.67 (0.15); HepG2 (potency, pEC50) [3]: 4.44 (0.09); THP-1 (potency, pEC50) ([4]; reference compound panel, mean (standard deviation), host cell toxicity): 4.46 (0.01)
11 | CCCNC(=O)N1[C@H](C#N)[C@H](c2ccccc2-c2ccc(C)cc2)[C@@H]1CO [BRD4332] | 6.31 | 0.631 | > 50.1 | –
12 | CC1CS(=O)(=O)CCN1/N=C/c1ccc([N+](=O)[O-])o1 (centres unmarked) [Nifurtimox] | – | – | – | EC50 [1, 6]: > 34.7 µM; EC50 [2, 7]: 11.2 µM; EC50 [3]: > 50.1 µM; EC50 [4, 8]: > 34.7 µM
13 | CCCNC(=O)N1[C@H](C#N)[C@@H](c2ccc(-c3cccc(OC)c3)cc2)[C@@H]1CO [BRD6650 RRS stereoisomer] | 15.8 | – | – | –
14 | CCCNC(=O)N1[C@H](C#N)[C@H](c2ccc(-c3cccc(OC)c3)cc2)[C@@H]1CO [BRD6650] | 2 | 0.501 | > 50.1 | –
15 | COc1ccc(-c2ccccc2[C@H]2[C@@H](C#N)N(C(=O)NC3CCCC3)[C@H]2CO)cc1 [BRD9613] | 10 | 1.58 | > 50.1 | –
16 | CCCNC(=O)N1[C@H](C#N)[C@H](c2ccccc2-c2ccc(OC)cc2)[C@@H]1CO [BRD2647] | 6.31 | 1.58 | > 50.1 | –
17 | CC(=O)O[C@@]12CO[C@@H]1C[C@H](O)[C@@]1(C)C(=O)[C@H](O)C3=C(C)[C@@H](OC(=O)[C@H](O)[C@@H](NC(=O)OC(C)(C)C)c4ccccc4)C[C@@](O)([C@@H](OC(=O)c4ccccc4)[C@H]21)C3(C)C [Docetaxel] | – | – | – | EC50 [1, 6]: 14.5 µM; EC50 [2, 7]: 8.91 µM; EC50 [4, 8]: > 34.7 µM
18 | CCCNC(=O)N1[C@H](C#N)[C@H](c2ccc(C3=CCCCC3)cc2)[C@@H]1CO [BRD5744] | 2 | 0.794 | > 50.1 | –
